From PubChem BioAssay AID264 (DTP/NCI, 2004)
Several values for one entry are separate records, joined by “and”; a condition that tells them apart may be missing. Equal entries are not always repeated. Records with an inconclusive call do not appear.

System: nude mice, LX-1 lung xenograft intrarenal, tumor weight T/C
Assay: NCI In Vivo Anticancer Drug Screen. Data for tumor model Human Lung LX-1 Xenograft (intrarenal inoculation) in NU/NU Swiss (nude) mice
Conditions: endpoint: mean tumor weight change, higher = larger tumour
Summary of the method: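 Readout: T/C, i.e. treated-group tumor measurement over vehicle-control measurement. Mice bearing transplantable tumors were dosed with compound or vehicle.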

Structure (SMILES): COc1cc2c(c(OC)c1OC)-c1ccc(OC)c(=O)cc1[C@@H](NC(=O)CCl)CC2
- T/C (dose: 1.25 mg/kg/injection, schedule: Q04DX003 (sc), vehicle: saline with Tween-80): 76 % of control
- T/C (dose: 2.5 mg/kg/injection, schedule: Q04DX003 (sc), vehicle: saline with Tween-80): 77 % of control
- T/C (dose: 5.0 mg/kg/injection, schedule: Q04DX003 (sc), vehicle: saline with Tween-80): 42 % of control

Structure (SMILES): Cn1cnc([N+](=O)[O-])c1SCC(=O)O
- T/C (dose: 100.0 mg/kg/injection, schedule: Q01DX010 (sc), vehicle: saline): 71 % of control
- T/C (dose: 200.0 mg/kg/injection, schedule: Q01DX010 (sc), vehicle: saline): 83 % of control
- T/C (dose: 400.0 mg/kg/injection, schedule: Q01DX010 (sc), vehicle: saline): 103 % of control
- T/C (dose: 800.0 mg/kg/injection, schedule: Q01DX010 (sc), vehicle: saline): 66 % of control

Structure (SMILES): CCSC(=O)N1c2ccc(OC)cc2C=CC1C#N (stereo unspecified)
- T/C (dose: 2400.0 mg/kg/injection, schedule: Q04DX003 (sc), vehicle: saline with Tween-80): 32 % of control (2×) and 40 % of control
- T/C (dose: 4800.0 mg/kg/injection, schedule: Q04DX003 (sc), vehicle: saline with Tween-80): 16 % of control and 17 % of control and 23 % of control

Structure (SMILES): COc1cc2c(c(OC)c1OC)-c1ccc(OC)c(=O)cc1[C@@H](N)CC2
- T/C (dose: 0.31 mg/kg/injection, schedule: Q01DX010 (sc), vehicle: Klucel (hydroxypropylcellulose) (HPC)): 104 % of control
- T/C (dose: 0.63 mg/kg/injection, schedule: Q01DX010 (sc), vehicle: Klucel (hydroxypropylcellulose) (HPC)): 74 % of control
- T/C (dose: 1.25 mg/kg/injection, schedule: Q01DX010 (sc), vehicle: Klucel (hydroxypropylcellulose) (HPC)): 76 % of control
- T/C (dose: 1.57 mg/kg/injection, schedule: Q01DX010 (sc), vehicle: Klucel (hydroxypropylcellulose) (HPC)): 79 % of control
- T/C (dose: 2.5 mg/kg/injection, schedule: Q01DX010 (sc), vehicle: Klucel (hydroxypropylcellulose) (HPC)): 50 % of control
- T/C (dose: 3.13 mg/kg/injection, schedule: Q01DX010 (sc), vehicle: Klucel (hydroxypropylcellulose) (HPC)): 61 % of control
- T/C (dose: 6.25 mg/kg/injection, schedule: Q01DX010 (sc), vehicle: Klucel (hydroxypropylcellulose) (HPC)): 66 % of control

Structure (SMILES): CCN1/C(=C/C(C)=C/c2sc3ccc4ccccc4c3[n+]2CC)Sc2ccc3ccccc3c21
- T/C (dose: 0.75 mg/kg/injection, schedule: Q04DX003 (sc), vehicle: Klucel (hydroxypropylcellulose) (HPC)): 67 % of control
- T/C (dose: 1.5 mg/kg/injection, schedule: Q04DX003 (sc), vehicle: Klucel (hydroxypropylcellulose) (HPC)): 112 % of control
- T/C (dose: 3.0 mg/kg/injection, schedule: Q04DX003 (sc), vehicle: Klucel (hydroxypropylcellulose) (HPC)): 76 % of control
- T/C (dose: 6.0 mg/kg/injection, schedule: Q04DX003 (sc), vehicle: Klucel (hydroxypropylcellulose) (HPC)): 96 % of control
- T/C (dose: 12.0 mg/kg/injection, schedule: Q04DX003 (sc), vehicle: Klucel (hydroxypropylcellulose) (HPC)): 112 % of control
- T/C (dose: 48.0 mg/kg/injection, schedule: Q04DX003 (sc), vehicle: Klucel (hydroxypropylcellulose) (HPC)): 81 % of control and 92 % of control

Structure (SMILES): O=c1[nH]c(=O)n([C@H]2CCCO2)cc1F
- T/C (dose: 50.0 mg/kg/injection, schedule: Q01DX010 (sc), vehicle: Klucel (hydroxypropylcellulose) (HPC)): 37 % of control
- T/C (dose: 200.0 mg/kg/injection, schedule: Q01DX010 (sc), vehicle: Klucel (hydroxypropylcellulose) (HPC)): 93 % of control
- T/C (dose: 400.0 mg/kg/injection, schedule: Q01DX010 (sc), vehicle: Klucel (hydroxypropylcellulose) (HPC)): 103 % of control

Structure (SMILES): C=C1C(=O)O[C@@H]2[C@H](O)[C@@H](C)[C@@H]3C=CC(=O)[C@@]3(C)[C@H](OC(=O)C=C(C)C)[C@H]12
- T/C (dose: 9.38 mg/kg/injection, schedule: Q04DX003 (sc), vehicle: saline with Tween-80): 95 % of control
- T/C (dose: 18.75 mg/kg/injection, schedule: Q04DX003 (sc), vehicle: saline with Tween-80): 101 % of control
- T/C (dose: 37.5 mg/kg/injection, schedule: Q04DX003 (sc), vehicle: saline with Tween-80): 100 % of control

Structure (SMILES): Cc1nn(CCO)c(C)c1N=[N+]([O-])c1c(C)nn(CCO)c1C
- T/C (dose: 150.0 mg/kg/injection, schedule: Q04DX003 (sc), vehicle: Klucel (hydroxypropylcellulose) (HPC)): 99 % of control
- T/C (dose: 300.0 mg/kg/injection, schedule: Q04DX003 (sc), vehicle: Klucel (hydroxypropylcellulose) (HPC)): 105 % of control
- T/C (dose: 600.0 mg/kg/injection, schedule: Q04DX003 (sc), vehicle: Klucel (hydroxypropylcellulose) (HPC)): 121 % of control
- T/C (dose: 1200.0 mg/kg/injection, schedule: Q04DX003 (sc), vehicle: Klucel (hydroxypropylcellulose) (HPC)): 103 % of control

Structure (SMILES): CCC/C=C/C=C/C(=O)OC1/C(=C/C(=O)OC)CC2CC(C(C)O)OC(=O)CC(O)CC3CC(OC(C)=O)C(C)(C)C(O)(CC4C/C(=C/C(=O)OC)CC(/C=C/C(C)(C)C1(O)O2)O4)O3 (stereo unspecified)
- T/C (dose: 0.25 mg/kg/injection, schedule: Q04DX003 (sc), vehicle: saline + alcohol): 112 % of control
- T/C (dose: 0.5 mg/kg/injection, schedule: Q04DX003 (sc), vehicle: saline + alcohol): 96 % of control
- T/C (dose: 1.0 mg/kg/injection, schedule: Q04DX003 (ip), vehicle: saline + alcohol): 96 % of control
- T/C (dose: 1.0 mg/kg/injection, schedule: Q04DX003 (sc), vehicle: saline + alcohol): 59 % of control
- T/C (dose: 2.0 mg/kg/injection, schedule: Q04DX003 (ip), vehicle: saline + alcohol): 119 % of control
- T/C (dose: 2.0 mg/kg/injection, schedule: Q04DX003 (sc), vehicle: saline + alcohol): 27 % of control and 40 % of control
- T/C (dose: 4.0 mg/kg/injection, schedule: Q04DX003 (ip), vehicle: saline + alcohol): 76 % of control
- T/C (dose: 8.0 mg/kg/injection, schedule: Q04DX003 (ip), vehicle: saline + alcohol): 81 % of control
- T/C (dose: 8.0 mg/kg/injection, schedule: Q04DX003 (sc), vehicle: saline + alcohol): 16 % of control
- T/C (dose: 10.0 mg/kg/injection, schedule: Q04DX003 (ip), vehicle: saline + alcohol): 93 % of control

Structure (SMILES): CCN(CC)CCC(=O)c1ccccc1
- T/C (dose: 150.0 mg/kg/injection, schedule: Q04DX003 (sc), vehicle: saline with Tween-80): 81 % of control

Structure (SMILES): C1CC[N-]CC1.C1CC[N-]CC1.C1CC[N-]CC1.[Cl][Rh]([Cl])[Cl]
- T/C (dose: 75.0 mg/kg/injection, schedule: Q04DX003 (sc), vehicle: saline): 78 % of control
- T/C (dose: 150.0 mg/kg/injection, schedule: Q04DX003 (sc), vehicle: saline): 87 % of control

Structure (SMILES): OCC1OC(n2cnc3cncnc32)C(O)C1O (stereo unspecified)
- T/C (dose: 12.5 mg/kg/injection, schedule: Q04DX003 (sc), vehicle: saline): 89 % of control
- T/C (dose: 25.0 mg/kg/injection, schedule: Q04DX003 (sc), vehicle: saline): 118 % of control
- T/C (dose: 50.0 mg/kg/injection, schedule: Q04DX003 (sc), vehicle: saline): 69 % of control

Structure (SMILES): CSc1cc(C)[o+]c(C)c1
- T/C (dose: 100.0 mg/kg/injection, schedule: Q04DX003 (sc), vehicle: Klucel (hydroxypropylcellulose) (HPC)): 87 % of control
- T/C (dose: 200.0 mg/kg/injection, schedule: Q04DX003 (sc), vehicle: Klucel (hydroxypropylcellulose) (HPC)): 76 % of control

Structure (SMILES): C=CS(C=C)=NS(=O)(=O)c1ccc(C)cc1
- T/C (dose: 18.75 mg/kg/injection, schedule: Q04DX003 (sc), vehicle: Klucel (hydroxypropylcellulose) (HPC)): 108 % of control
- T/C (dose: 37.5 mg/kg/injection, schedule: Q04DX003 (sc), vehicle: Klucel (hydroxypropylcellulose) (HPC)): 163 % of control
- T/C (dose: 75.0 mg/kg/injection, schedule: Q04DX003 (sc), vehicle: Klucel (hydroxypropylcellulose) (HPC)): 71 % of control

Structure (SMILES): Cn1/c2cc/c1=C(\c1ccc(S(=O)(=O)O)cc1)c1ccc([n-]1)/C(c1ccc(S(=O)(=O)O)cc1)=c1/cc/c([nH]1)=C(\c1ccc(S(=O)(=O)O)cc1)c1ccc([n-]1)/C=2c1ccc(S(=O)(=O)O)cc1.O.O=S(=O)(O)C(F)(F)F.[Cu+2]
- T/C (dose: 200.0 mg/kg/injection, schedule: Q04DX003 (sc), vehicle: suspension in saline): 100 % of control
- T/C (dose: 400.0 mg/kg/injection, schedule: Q04DX003 (sc), vehicle: suspension in saline): 109 % of control
- T/C (dose: 800.0 mg/kg/injection, schedule: Q04DX003 (sc), vehicle: suspension in saline): 94 % of control

Structure (SMILES): CN1C(=O)CC2(CCN(CCCC(=O)c3ccc(F)cc3)CC2)C1=O
- T/C (dose: 18.75 mg/kg/injection, schedule: Q04DX003 (sc), vehicle: suspension in saline): 33 % of control
- T/C (dose: 75.0 mg/kg/injection, schedule: Q04DX003 (sc), vehicle: suspension in saline): 85 % of control
- T/C (dose: 150.0 mg/kg/injection, schedule: Q04DX003 (sc), vehicle: suspension in saline): 77 % of control

Structure (SMILES): Cc1c2cc[n+](CCN3CCCCC3)cc2c(C)c2c1[nH]c1ccc(O)cc12
- T/C (dose: 50.0 mg/kg/injection, schedule: Q04DX003 (sc), vehicle: suspension in saline): 83 % of control
- T/C (dose: 100.0 mg/kg/injection, schedule: Q04DX003 (sc), vehicle: suspension in saline): 68 % of control
